Test results: patent US10039718B2, “Use of solid carrier particles to improve the processability of a pharmaceutical agent” (Gilead Sciences, Inc., priority 2008, dated 2018)

Experiment: Water uptake (hygroscopicity) by dynamic vapor sorption (DVS)
Format: physicochemical
Details: 75% RH, 25° C., after 1 hour drying under dry nitrogen
Experimental: The water uptake for AEROPERL® 300 (fumed silica), the Compound, and a sample of AEROPERL® 300 (fumed silica) loaded with 50.0% (w/w) of the Compound was measured as described below.
The compound of formula (I) was dissolved in ethanol and this solution was poured onto a sample of fumed silica that was equal in weight to the amount of the compound of formula (I). The resulting mixture was thoroughly mixed and the solvent was evaporated to provide the compound/AEROPERL® 300 (fumed silica) material used for the uptake study below.
The hygroscopicity of the samples was measured by dynamic vapor sorption (DVS) on a DVS Advantage-1 instrument from Surface Measurement Systems (SMS, Allentown, Pa.). In a DVS experiment the mass increase/decrease of a sample is measured at various relative humidity (RH) levels at a constant temperature. The instrument consists of a microbalance with one pan containing the sample (typically about 5-10 mg of sample) and an empty pan as a reference, and a water vapor generator to produce the desired relative humidity level. All experiments were run at a constant temperature of 25° C. For all experiments the samples were initially dried under a continuous flow of dry nitrogen for 1 hour to establish the dry mass m0. The relative humidity was then increased to 75% and the increase in mass was recorded as the samples take up water.

water adsorbed (increase in mass at equilibrium): 4.8 % (by weight)
Compound: CC(C)c1nc(CN(C)C(=O)NC(CCN2CCOCC2)C(=O)NC(CCC(Cc2ccccc2)NC(=O)OCc2cncs2)Cc2ccccc2)cs1 (stereo not shown) [the Compound]
